Assay results taken from article PMC12169615, “Fluorescent 4‑Nitrobenzo-2-oxa-1,3-diazole-Coupled Bile Acids as Probe Substrates of Hepatic and Intestinal Bile Acid Transporters of the Solute Carrier Families SLC10 and SLCO” (Journal of Medicinal Chemistry, 2025).
Where “and” joins values, the source holds several entries; their conditions need not be identical. Identical values can stand only once.

Columns and labels:
[1] = Excitation-emission spectra of the 3-NBD-BA; format: physicochemical; settings: NaCl-transport buffer, 1 pM compound concentration
Experimental: After the synthesis of this set of unconjugated as well as T- and G-conjugated 3β- and 3α-NBD-BA derivatives, namely 3β-NBD-CA (6a), 3β-NBD-CDCA (6b), 3β-NBD-DCA (6c), 3α-NBD-CA (6d), 3β-NBD-TCA (14a), 3β-NBD-TCDCA (14b), 3α-NBD-TCA (14d), 3β-NBD-GCA (16a), and 3α-NBD-GCA (16d) comprehensive transport studies were conducted with all fluorescent BA listed in Figure . Prior to the transport studies, the excitation and emission spectra of all fluorescent BA derivatives were determined to obtain the optimal emission and excitation wavelengths for subsequent fluorescent measurements at the fluorescence microscope and the fluorescent reader (Figure ). The excitation maxima (ExPeak) were at 468–470 nm and the emission maxima (EmPeak) at 538–540 nm for all fluorescent NBD-BA.
2 Excitation–emission-spectra of the 3-NBD-BA measured in NaCl-transport buffer at 1 pM compound concentration. The excitation (dotted line, ExPeak) and emission (solid line, EmPeak) peak wavelengths (in nm) are indicated for each compound. RFU, relative fluorescence units. […]

mouse mNtcp = biological target: T1, mouse mNtcp (Mus musculus, UniProt O08705); test: Quantitative uptake of 3-NBD-BA in carrier-expressing HEK293 cells (fluorescence reader); format: cell-based; settings: mNtcp-HEK293, 25 μM, 37 °C, +Na+ vs -Na+
T1 construct: stably transfected with the full open reading frames of human NTCP, ASBT, SOAT, OATP1B1, and OATP1B3 as well as mouse mNtcp and mAsbt; expressed in transfected cells
T1 sequence (O08705 1-362): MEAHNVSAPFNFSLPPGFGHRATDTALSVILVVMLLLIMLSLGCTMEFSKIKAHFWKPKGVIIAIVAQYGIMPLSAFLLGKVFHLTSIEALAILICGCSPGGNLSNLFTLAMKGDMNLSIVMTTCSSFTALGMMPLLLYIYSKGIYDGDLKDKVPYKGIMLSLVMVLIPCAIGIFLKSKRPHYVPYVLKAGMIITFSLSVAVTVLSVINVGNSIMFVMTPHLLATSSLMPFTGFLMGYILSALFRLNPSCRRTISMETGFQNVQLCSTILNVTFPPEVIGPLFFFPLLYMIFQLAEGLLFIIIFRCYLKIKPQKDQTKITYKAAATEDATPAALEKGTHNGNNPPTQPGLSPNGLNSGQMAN
Experimental: For quantification of the transport activity of the synthesized NBD-BA, all cell lines were seeded on 96 well plates and transport experiments were performed under the same control conditions (-Na^+ control for the SLC10 carriers and nontransfected HEK293 cells for the OATP carriers) as before (Figure ). For each NBD-BA, a substrate concentration of 25 μM was used, and the uptake phase was terminated after 10 min of incubation at 37 °C. […] The transport ratios ranged from 3-fold to 39-fold. In direct comparison, 3α-NBD-TCA (14d) and 3α-NBD-GCA (16d) were transported better than their 3β-analogs 3β-NBD-TCA (14a) and 3β-NBD-GCA (16a), respectively, clearly pointing to a preference for the α-position over the β-position of the 3-NBD-label. In direct comparison between the taurine- or glycine-conjugation of the respective NBD-BA, there was a clear preference for 3α-NBD-GCA (16d) over 3α-NBD-TCA (14d), at least for NTCP and mAsbt, pointing to a favorable substrate recognition for glycine-conjugated NBD-BA.
5 Quantitative uptake experiments with the 3-NBD-BA in HEK293 cells stably expressing the human carriers NTCP, ASBT, SOAT, OATP1B1, and OATP1B3, or the mouse carriers mNtcp and mAsbt. For the SLC10 carriers, all transport experiments were performed in the presence (filled bars) and the absence (hatched bars) of sodium. For the OATP carriers, uptake into carrier-expressing cells (filled bars) was compared to uptake into non-carrier-expressing HEK293 cells (hatched bars). All cell lines were incubated at 37 °C for 10 min with the indicated 3-NBD-BA at 25 μM. Then, cells were washed with PBS and subjected to fluorescence detection. The following fluorescent BA were analyzed: 3α-NBD-TCA (14d), 3β-NBD-TCA (14a), 3α-NBD-GCA (16d), 3β-NBD-GCA (16a), 3β-NBD-TCDCA (14b), 3β-NBD-CDCA (6b), 3β-NBD-DCA (6c), 3α-NBD-CA (6d), and 3β-NBD-CA (6a). Data represent means ± SD of triplicate determinations of representative experiments. […] RFU, relative fluorescence units. TEXT PRINTED IN THE PICTURE: 3α-NBD-TCA (14d): NTCP: 9 X; mNtcp: 30 X; ASBT: 2 X; mAsbt: 14 X | 3ß-NBD-TCA (14a): NTCP: 12 X; mNtcp: 20 X; mAsbt: 18 X | 3α-NBD-GCA (16d): NTCP: 27 X; mNtcp: 26 X; ASBT: 3 X; mAsbt: 39 X | 3ß-NBD-GCA (16a): NTCP: 15 X; mNtcp: 14 X; mAsbt: 5 X | 3ß-NBD-TCDCA (14b): NTCP: 5 X; mNtcp: 3 X; mAsbt: 4 X | 3ß-NBD-CDCA (6b): mNtcp: < 2 X; ASBT: < 2 X; mAsbt: < 2 X; OATP1B1: < 2 X; OATP1B3: < 2 X | 3ß-NBD-DCA (6c): mNtcp: < 2 X; ASBT: < 2 X; mAsbt: < 2 X | 3α-NBD-CA (6d): mNtcp: 2 X; mAsbt: 4 X | 3ß-NBD-CA (6a): NTCP: 2 X; mNtcp: 2 X; mAsbt: 2 X DOUBTS OF THE COPYIST ABOUT THIS PICTURE: The picture prints no panel letters, so the chart titles (NTCP, mNtcp, ASBT, mAsbt, OATP1B1, OATP1B3) are written in front of the values as the target. / Substance labels: the sign after '3' is printed like 'ß' and may be meant as 'β'. / The 'ns' marks and significance asterisks were left out as statistics. The SOAT chart prints only 'ns'.

With `C[C@H](CCC(=O)NCC(=O)O)[C@H]1CC[C@H]2[C@@H]3[C@H](O)C[C@@H]4C[C@@H](Nc5ccc([N+](=O)[O-])c6nonc56)CC[C@]4(C)[C@H]3C[C@H](O)[C@]12C` [16a] the “Emission peak wavelength (EmPeak)” value [1] was 538 nm, the “Excitation peak wavelength (ExPeak)” value [1] was 468 nm and the “Specific transport ratio mNtcp (25µM/10 min uptake)” value (“Specific transport ratio mNtcp” for short) (mouse mNtcp) was 14x x-fold.
For “12α-Hydroxy-3β-[(7-nitro-2,1,3-benzoxadiazol-4-yl)amino]-5β-cholan-24-oate [6c]”, the “Emission peak wavelength (EmPeak)” value [1] was 538 nm, the “Excitation peak wavelength (ExPeak)” value [1] was 468 nm and the “Specific transport ratio mNtcp” value (mouse mNtcp) was <2x x-fold.
With `C[C@H](CCC(=O)NCC(=O)O)[C@H]1CC[C@H]2[C@@H]3[C@H](O)C[C@@H]4C[C@H](Nc5ccc([N+](=O)[O-])c6nonc56)CC[C@]4(C)[C@H]3C[C@H](O)[C@]12C` [16d] the “Emission peak wavelength (EmPeak)” value [1] was 538 nm, the “Excitation peak wavelength (ExPeak)” value [1] was 468 nm and the “Specific transport ratio mNtcp” value (mouse mNtcp) was 26x x-fold.
With `C[C@H](CCC(=O)NCCS(=O)(=O)[O-])[C@H]1CC[C@H]2[C@@H]3[C@H](O)C[C@@H]4C[C@H](Nc5ccc([N+](=O)[O-])c6nonc56)CC[C@]4(C)[C@H]3C[C@H](O)[C@]12C.[Na+]` [14d] the “Emission peak wavelength (EmPeak)” value [1] was 538 nm, the “Excitation peak wavelength (ExPeak)” value [1] was 468 nm and the “Specific transport ratio mNtcp” value (mouse mNtcp) was 30x x-fold.
For “7α-Hydroxy-3β-[(7-nitro-2,1,3-benzoxadiazol-4-yl)amino]-5β-cholan-24-oate [6b]”, the “Emission peak wavelength (EmPeak)” value [1] was 538 nm, the “Excitation peak wavelength (ExPeak)” value [1] was 468 nm and the “Specific transport ratio mNtcp” value (mouse mNtcp) was <2x x-fold.
In the case of `C[C@H](CCC(=O)O)[C@H]1CC[C@H]2[C@@H]3[C@H](O)C[C@@H]4C[C@H](Nc5ccc([N+](=O)[O-])c6nonc56)CC[C@]4(C)[C@H]3C[C@H](O)[C@]12C` [6d, 7α,12α-Dihydroxy-3α-[(7-nitro-2,1,3-benzoxadiazol-4-yl)amino]-5β-cholan-24-oate], the “Emission peak wavelength (EmPeak)” value [1] is reported as 538 nm, the “Excitation peak wavelength (ExPeak)” value [1] is reported as 468 nm and the “Specific transport ratio mNtcp” value (mouse mNtcp) is reported as 2 x-fold and 2x x-fold.
For `C[C@H](CCC(=O)O)[C@H]1CC[C@H]2[C@@H]3[C@H](O)C[C@@H]4C[C@@H](Nc5ccc([N+](=O)[O-])c6nonc56)CC[C@]4(C)[C@H]3C[C@H](O)[C@]12C` [6a, 7α,12α-Dihydroxy-3β-[(7-nitro-2,1,3-benzoxadiazol-4-yl)amino]-5β-cholan-24-oate], the “Emission peak wavelength (EmPeak)” value [1] was 538 nm, the “Excitation peak wavelength (ExPeak)” value [1] was 468 nm and the “Specific transport ratio mNtcp” value (mouse mNtcp) was 2 x-fold and 2x x-fold.
With `C[C@H](CCC(=O)NCCS(=O)(=O)[O-])[C@H]1CC[C@H]2[C@@H]3[C@H](O)C[C@@H]4C[C@@H](Nc5ccc([N+](=O)[O-])c6nonc56)CC[C@]4(C)[C@H]3C[C@H](O)[C@]12C.[Na+]` [14a] the “Emission peak wavelength (EmPeak)” value [1] was 538 nm, the “Excitation peak wavelength (ExPeak)” value [1] was 468 nm and the “Specific transport ratio mNtcp” value (mouse mNtcp) was 20x x-fold.
